Measured values: BindingDB's records for doi:10.7270/Q2NG4P4X (Burnham Center For Chemical Genomics, 2011)

Biological target: Beta-galactosidase (Escherichia coli, UniProt Q8VNN2)
Assay: beta-galactosidase enzyme inhibitors and activators, dose response, artefact control for CCR6 antagonist project, biochemical, E. coli enzyme, set 3 (AID 504712)

Sequence of Beta-galactosidase (Q8VNN2 whole entry): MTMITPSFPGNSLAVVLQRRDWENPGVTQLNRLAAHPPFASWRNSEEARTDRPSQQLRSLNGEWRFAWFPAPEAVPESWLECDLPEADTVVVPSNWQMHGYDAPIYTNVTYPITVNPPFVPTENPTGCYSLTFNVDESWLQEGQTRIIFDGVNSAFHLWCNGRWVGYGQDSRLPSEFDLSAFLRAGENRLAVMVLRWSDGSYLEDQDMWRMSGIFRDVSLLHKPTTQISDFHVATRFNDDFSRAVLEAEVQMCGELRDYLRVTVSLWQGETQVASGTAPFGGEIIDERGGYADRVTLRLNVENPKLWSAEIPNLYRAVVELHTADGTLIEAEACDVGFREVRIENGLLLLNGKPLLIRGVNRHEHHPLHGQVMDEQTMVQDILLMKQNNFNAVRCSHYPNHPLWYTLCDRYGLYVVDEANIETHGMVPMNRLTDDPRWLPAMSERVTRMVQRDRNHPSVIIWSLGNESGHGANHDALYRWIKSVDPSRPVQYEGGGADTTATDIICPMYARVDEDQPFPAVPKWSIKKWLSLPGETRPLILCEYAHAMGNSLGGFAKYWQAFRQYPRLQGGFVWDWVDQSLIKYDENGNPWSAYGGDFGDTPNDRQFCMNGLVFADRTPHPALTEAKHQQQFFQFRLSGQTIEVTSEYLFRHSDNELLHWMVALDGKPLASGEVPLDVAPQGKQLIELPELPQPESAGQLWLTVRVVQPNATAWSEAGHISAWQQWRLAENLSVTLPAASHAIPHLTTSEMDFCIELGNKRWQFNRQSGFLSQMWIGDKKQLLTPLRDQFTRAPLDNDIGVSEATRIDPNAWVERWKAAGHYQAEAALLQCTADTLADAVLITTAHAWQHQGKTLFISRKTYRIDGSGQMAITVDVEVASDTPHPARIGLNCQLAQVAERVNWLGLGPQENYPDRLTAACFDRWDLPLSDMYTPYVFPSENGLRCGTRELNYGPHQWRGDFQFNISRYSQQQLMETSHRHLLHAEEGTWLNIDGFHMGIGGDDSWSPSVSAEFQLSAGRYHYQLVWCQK

| Compound | IC50 [µM] |
| --- | --- |
| O=Nc1c(C2C(=O)Nc3cc(Br)ccc32)[nH]c2ccccc12 (stereo not drawn) [6-bromoindirubin-3-oxime] | 40.8 |
| C=CCSC(N)=NN=CC1C=C(Br)C=C([N+](=O)[O-])C1=O (stereo not drawn) [N''-[[(E)-(3-bromo-5-nitro-6-oxo-1-cyclohexa-2,4-dienylidene)methyl]amino]carbamimidothioic acid prop-2-enyl ester] | > 66.6 |
| Oc1cc(Sc2nnnn2-c2ccccc2)c(O)n1-c1cccc(Cl)c1 | > 66.6 |
| C=c1c(O)c(O)cc2c1=CC=C1[C@@]2(C)CC[C@@]2(C)[C@@H]3C[C@](C)(C(=O)O)CC[C@]3(C)CC[C@]12C | > 66.6 |
| CC(C)(C)C1CCC(=NNC(=S)NCc2ccccc2)CC1 (stereo not drawn) [SMR000377499] | > 66.6 |
| Oc1ccccc1-c1nnc(Sc2cc(O)n(-c3ccccc3)c2O)o1 [3-[[(2Z)-2-(6-oxo-1-cyclohexa-2,4-dienylidene)-3H-1,3,4-oxadiazol-5-yl]thio]-1-phenylpyrrolidine-2,5-dione] | > 66.6 |
| Cc1cc(N=NCc2ccc(F)cc2)nc(-n2nc(C)cc2C)n1 [SMR000426945] | > 66.6 |
| CCOc1ccc(CN=Nc2ccc(S(=O)(=O)Nc3ccccc3C(=O)O)cc2[N+](=O)[O-])cc1OC [SMR001308940] | > 66.6 |
| Oc1c(Cl)c(N=CCc2ccccc2)c(O)c2ccccc12 [MLS002608293] | > 66.6 |
| CC1=NN(c2ccccc2)C(=O)/C1=C/NN1C(=O)c2ccc3c4c(ccc(c24)C1=O)CC3 [SMR000171439] | > 66.6 |
| O=C1C(/C=N/c2ccc(N3CCOCC3)cc2)=CC(Cc2ccccc2)C=C1[N+](=O)[O-] (stereo not drawn) [SMR000231104] | > 66.6 |
| COc1cccc(CN=Nc2nc(Nc3ccccc3)nc(-n3nc(C)cc3C)n2)c1O [(6E)-6-[[2-[4-(3,5-dimethylpyrazol-1-yl)-6-phenylazanyl-1,3,5-triazin-2-yl]hydrazinyl]methylidene]-2-methoxy-cyclohexa-2,4-dien-1-one] | > 66.6 |
| Cc1cc(C)cc(-n2c(O)cc(Sc3nnnn3-c3ccccc3)c2O)c1 [1-(3,5-dimethylphenyl)-3-(1-phenyltetrazol-5-yl)sulfanylpyrrolidine-2,5-dione] | > 66.6 |
| O=C(NN=CC1C=C([N+](=O)[O-])C=CC1=O)Nc1ccccc1 (stereo not drawn) [MLS000713965] | > 66.6 |
| C=CCOc1ccc(CN=Nc2ccc(S(=O)(=O)Nc3ccccc3C(=O)O)cc2[N+](=O)[O-])cc1OC [2-[[4-[2-[(3-methoxy-4-prop-2-enoxy-phenyl)methylidene]hydrazinyl]-3-nitro-phenyl]sulfonylamino]benzoic acid] | > 66.6 |
| O=C1C=CC([N+](=O)[O-])=CC1CN=Nc1ccccn1 (stereo not drawn) [MLS000585015] | > 66.6 |
| COC1=CC=CC(CN=Nc2nc(Nc3ccc([N+](=O)[O-])cc3)nc(N3CCCC3)n2)C1=O (stereo not drawn) [2-hydroxy-3-methoxybenzaldehyde {4-[(4-nitrophenyl)amino]-6-pyrrolidin-1-yl-1,3,5-triazin-2-yl}hydrazone] | > 66.6 |
| Oc1cc(Sc2nnnn2C2CCCCC2)c(O)n1-c1ccccc1 [3-[(1-cyclohexyl-1,2,3,4-tetrazol-5-yl)sulfanyl]-1-phenyl-pyrrolidine-2,5-dione] | > 66.6 |
| CC(NO)C(=O)C(=CN1CCCCC1)CN1CCCCC1 (stereo not drawn) | > 66.6 |
| COc1ccc(-n2c(O)c(CN=Nc3nc(C)cc(C)n3)c3ccccc3c2=O)cc1OC [SMR000385482] | > 66.6 |
| CCOc1ccc(CN=Nc2ccc(S(=O)(=O)Nc3ccccc3C(=O)O)cc2[N+](=O)[O-])cc1 | > 66.6 |
| O=C1C(O)=CC=CC1CN=Nc1ccc([N+](=O)[O-])cc1 (stereo not drawn) [MLS001207776] | > 66.6 |

| Compound | IC50 [µM] |
| --- | --- |
| CCOc1ccc(-n2c(O)cc(Sc3nnnn3-c3ccccc3)c2O)cc1 [SMR000271658] | > 66.6 |
| COc1ccc(-n2c(O)cc(Sc3nnc(-c4ccccc4)o3)c2O)cc1 [1-(4-methoxyphenyl)-3-[(5-phenyl-1,3,4-oxadiazol-2-yl)thio]pyrrolidine-2,5-dione] | > 66.6 |
| O=C1Nc2ccc([N+](=O)[O-])cc2/C1=N/NC(=O)c1cc(-c2ccccc2Cl)nc2ccccc12 [2-(2-chlorophenyl)-N'-(2-keto-5-nitro-indol-3-yl)cinchoninohydrazide] | > 66.6 |
| Cc1cc(C)nc(NNC=C2C(=O)CC(c3ccc(F)cc3)CC2=O)n1 (stereo not drawn) | > 66.6 |
| CCCC1CCC(=NNC(=S)NCCc2ccccc2)CC1 (stereo not drawn) [SMR000347544] | > 66.6 |
| N#CC(=C1C=CC(N=O)C(Cl)=C1)c1ccc(Cl)cc1 (stereo not drawn) [SMR001570423] | > 66.6 |
| Cc1ccccc1-n1c(O)cc(Sc2nnc(-c3ccccc3)o2)c1O [1-(2-methylphenyl)-3-[(5-phenyl-1,3,4-oxadiazol-2-yl)sulfanyl]pyrrolidine-2,5-dione] | > 66.6 |
| C/C=C(\C)C(=O)OC1[C@H](OC(C)=O)C2(CO)C(CC1(C)C)C1=CCC3C4(C)CCC(O[C@@H]5O[C@H](C(=O)O)[C@@H](O[C@@H]6O[C@H](CO)[C@@H](O)[C@H](O)[C@H]6O)[C@H](O)[C@H]5O[C@H]5O[C@H](CO)[C@@H](O)[C@H](O)[C@H]5O)[C@](C)(CO)C4CCC3(C)[C@]1(C)C[C@H]2O (stereo partly drawn) [MLS002695979] | > 66.6 |
| O=C1C=CC([N+](=O)[O-])=CC1CN=Nc1nnn[nH]1 (stereo not drawn) | > 66.6 |
| CN1C(=O)/C(=C2/C(=O)Nc3ccccc32)NC1=S [SMR000198608] | > 66.6 |
| Cc1c(NN=C2C(=O)CC(C)(C)CC2=O)c(=O)n(-c2ccccc2)n1C [2-[(1,5-dimethyl-3-oxidanylidene-2-phenyl-pyrazol-4-yl)hydrazinylidene]-5,5-dimethyl-cyclohexane-1,3-dione] | > 66.6 |
| O=C1C([N+](=O)[O-])=CC(Cl)=CC1CN=Nc1ccccn1 (stereo not drawn) [MLS000539830] | > 66.6 |
| CCOC1=CC(=Cc2c(-c3ccccc3)[nH]n(-c3nc(-c4ccc(Br)cc4)cs3)c2=O)C=CC1=O | > 66.6 |
| O=C1C=CC=CC1CN=Nc1ccc([N+](=O)[O-])cn1 (stereo not drawn) [MLS002608402] | 46 |
| O=C(O)c1ccc(N=NC=CCc2ccc([N+](=O)[O-])o2)cc1 [SMR000590759] | 33 |
| CN1C(=O)C(C2CC(c3ccc(Cl)cc3)N=N2)C(=O)N(C)C1=O (stereo not drawn) [SMR000439471] | > 66.6 |
| CN(C)c1nc(N=NCc2ccccc2O)nc(Nc2ccc(F)cc2)n1 [(6E)-6-[[2-[4-(dimethylamino)-6-(4-fluoroanilino)-1,3,5-triazin-2-yl]hydrazinyl]methylidene]cyclohexa-2,4-dien-1-one] | > 66.6 |
| CC(N=Nc1ccc2ccccc2n1)c1ccccc1O (stereo not drawn) [(6Z)-6-[1-[N'-(2-quinolyl)hydrazino]ethylidene]cyclohexa-2,4-dien-1-one] | > 66.6 |
| Cc1cc2nc(-n3c(O)c[nH]c3=S)sc2cc1C [SMR000272190] | > 66.6 |
| O=C1C([N+](=O)[O-])=CC=CC1CN=Nc1ccc2ccccc2n1 (stereo not drawn) [(6E)-2-nitro-6-[(2-quinolin-2-ylhydrazinyl)methylidene]cyclohexa-2,4-dien-1-one] | > 66.6 |
| Cc1ccc2nc(-n3c(O)c[nH]c3=S)sc2c1 | > 66.6 |
